# Tested on: HEK293T cells
# Test: Metabolic conversion and uptake of 2-hydroxylated fatty acids in HEK293T cell cultures
# Format: in vitro ADME, human
# Experimental: To describe the metabolic conversion of DHA-H to HPA(C21:5 ω-3), as well as the conversion of LA-H to HDA (C17:2 ω-6), ALA-H to HTA ω-3 (C17:3 ω-3), GLA-H to HTA ω-6 (C17:3 ω-6), ARA-H to NTA (C19:4 ω-6), EPA-H to NPA (C19:5 ω-3), HEK293T (Human Embryonic Kidney Cells 293T) cell cultures were employed, which is an embryonic, non-tumoral cell line, widely used in human metabolism studies under physiological conditions.
# HEK293T cells were cultured in Dulbecco's Modified Eagle's Medium (DMEM; Dubelcco's Modified Eagle's Medium, Biowest, France), supplemented with 10% FBS (Fetal Bovine Serum; Gibco, Thermo-Fisher), 2 mM L-Gln, 25 mM D(+)-glucose, 1 mM sodium pyruvate, and penicillin/streptomycin. Mouse neuroblastoma N2a cells were maintained in a 1:1 (v:v) mixture of DMEM and Opti-Mem (Gibco, Thermo-Fisher), supplemented with 5% FBS and penicillin/streptomycin. Both cell lines were incubated in an atmosphere of 5% CO2 at 37° C.
# HEK293T cells were incubated with DHA-H and DHA at 10, 30 and 100 μM for 24 hours, and at 30 μM for 6, 48 and 72 hours. These cells were also incubated with LA-H, ALA-H, GLA-H, ARA-H and EPA-H at 100 μM for 24 hours. HEK293T cells were also incubated with oxythiamine in the presence of DHA-H under the same conditions, at final oxythiamine concentrations of 1 and 10 mM. The HEK293T cells were separated from the plates by pipettes with cold phosphate buffer saline solution (PBS). Cells were recovered by centrifugation (1000 xg, 10 min at 4° C.) and washed twice with cold PBS before being frozen at −80° C. To analyze DHA-H and DHA levels in the cell culture medium, 90 mm diameter plates were filled with 11 mL of complete cell culture medium containing 30 μM DHA-H or DHA in the presence or absence of attached HEK293T cells (5.10^5 cells/plate). The plates were incubated as described above and 1 ml aliquots of the plates were collected at 0, 6, 24, 48 and 72 hours. Aliquots of the cell culture medium were immediately centrifuged at 1000×g for 10 min at 4° C. to remove any cell suspension and the cell-free aliquots were stored at -20° C.
# The cell lysates were subjected to ultrasound pulses (4 cycles, 10 s/cycle, 10 W) before lipid extraction. For brain analysis, the tissue of each animal was homogenized in cold PBS at 1:10 (p:v) in the presence of protease inhibitors (Roche), using a blade homogenizer (Polytron PT3100). Homogenates were ultrasounded, aliquots were made and stored at −80 ° C. Only one aliquot of each sample, containing about 8 mg protein/aliquot, was subjected to lipid extraction. Protein content before lipid extraction was determined by a modified Lowry method (Bio-rad DC Protein Assay).
# Margaric acid (C17:0) was added to the samples subjected to lipid extraction as an internal standard and the lipids were extracted with chloroform:methanol (Eggers and Schwudke, 2016). Briefly, 0.75 volumes of the aqueous phase (which already contained the biological sample) were mixed with 2 volumes of chloroform and 1 volume of methanol. This mixture was vortexed for 1 minute and centrifuged at 1000×g for 10 minutes. The lower organic phase was collected and washed with 1 ml of PBS:methanol (1:1,v:v), and the resulting organic phase was dried under argon flow. The film containing the extracted lipids was transmethylated by incubation of the lipid mixture for 90 minutes at 100° C. in 3 ml of methanol:acetyl chloride (10:1, v:v), under an argon atmosphere (Christie, 1993). The resulting fatty acid methyl esters (FAMEs) were extracted with hexane, adding 3 ml of H2O and 1 ml of hexane to the transmethylation reaction, and vortexing the mixture thoroughly. After centrifugation at room temperature (1000×g for 10 min), the upper phase containing the FAMEs was collected and the remaining volume was washed twice with 1 ml of hexane.
"Levels in the culture medium in the absence of cell culture (30 μM, up to 72 h, no cells)","Formation of the metabolite from its 2-hydroxylated prodrug in the presence of oxythiamine (HEK293T, prodrug 100 μM, 24 h, 10 mM oxythiamine)",Structure (SMILES),"Intracellular HPA levels compared to DHA-H levels (HEK293T under DHA-H, from 24 hours of incubation and 30 μM)"
remained constant over time,,"CCC=CCC=CCC=CCC=CCC=CCC=CCC(O)C(=O)O (stereo not drawn) [DHA-H, 2-hydroxy-drocosahexaenoic acid]",
,inhibited,"CC/C=C\C/C=C\C/C=C\C/C=C\C/C=C\CCCCC(=O)O [HPA, (6Z,9Z,12Z,15Z,18Z)-heneicosa-6,9,12,15,18-pentaenoic acid]",significantly higher than those of the prodrug

# Reference: patent US20230097753A1, “ALPHA-HYDROXYLATED FATTY-ACID METABOLITES, MEDICAL USES AND USE AS BIOMARKERS” (UNIVERSITAT DE LES ILLES BALEARS, priority 2020, published 2023)
